According to patent US20250144067A1, “PERSONALIZED STARVATION THERAPY FOR CANCER” (Faeth Therapeutics, Inc., priority 2021, published 2025):
Where a name gives a salt, the structure may show the parent alone.

Key:
[1] = system: NCI-H292 lung cancer cells; assay: FDA drug screening, complete media vs cholesterol-free media without statin (TABLE 1); type: cell-based, human; settings: for Difference: about 0 neutral
[2] = system: NCI-H292 lung cancer cells; assay: FDA drug screening, complete media vs cholesterol-free media with simvastatin (TABLE 2); type: cell-based, human; settings: for Cholesterol-free media + simvastatin (0.04 μM) / Complete Media: NCI-H292 cells; for Difference: >0 enhanced anti-cancer activity, about 0 neutral, <0 antagonist
[3] = NCI-H292 cells, cholesterol-free media without statin, FDA drug library screen
[4] = NCI-H292 cells, complete media, FDA drug library screen
[5] = complete vs cholesterol-free media, >0 enhanced anti-cancer activity, <0 antagonist
[6] = cholesterol-free media with simvastatin 0.04 μM, cell growth value in FDA drug screen
[7] = complete media, cell growth value in FDA drug screen
[8] = complete media minus cholesterol-free media + simvastatin
[9] = NCI-H292 cells, cholesterol-free media without statin
[10] = complete vs cholesterol-free media, greater than 0 enhanced anti-cancer activity, below 0 antagonists
[11] = drug in cholesterol-free media with simvastatin 0.04 μM
[12] = complete media vs cholesterol-free media + simvastatin (0.04 μM)
[13] = Complete minus Cholesterol-free, >0 enhanced anti-cancer activity, <0 antagonist
[14] = Complete minus Cholesterol-free, greater than 0 enhanced anti-cancer activity, below 0 antagonists
[15] = NCI-H292 cells in cholesterol-free media without statin
[16] = NCI-H292 cells in complete media
[17] = FDA library drug in cholesterol-free media with simvastatin 0.04 μM
[18] = FDA library drug in complete media

Row | SMILES | Cholesterol-free media + simvastatin (0.04 μM) [2, 6] | Complete Media [2, 7] | Difference [2, 8] | Cholesterol-free [1, 9] | Complete ([1]; NCI-H292 cells, complete media) | Cholesterol-free media + simvastatin (0.04 μM) [2, 11] | Complete Media ([2]; drug in complete media) | Difference [2, 12] | also measured
1 | NC[C@H]1O[C@H](O[C@H]2[C@H](O)[C@@H](O[C@H]3O[C@H](CO)[C@@H](O)[C@H](N)[C@H]3O)[C@H](N)C[C@@H]2N)[C@H](N)C[C@@H]1O [Tobramycin] | 0.8625 | 0.9069 | 0.04 |  |  |  |  |  | Cholesterol-free [1, 3]: 1.416; Complete [1, 4]: 1.802; Difference [1, 5]: 0.39
2 | Cc1cccc(C)c1NC(=O)C(C)N (stereo not drawn) [Tocainide (hydrochloride)] |  |  |  | 1.376 | 0.9544 | 1.258 | 1.006 | −0.25 | Difference [1, 10]: −0.42
3 | Cc1[nH]c(/C=C2\C(=O)Nc3ccc(F)cc32)c(C)c1C(=O)NCCN1CCCC1 [Toceranib] | 0.9375 | 1.022 | 0.08 |  |  |  |  |  | Cholesterol-free [1, 3]: 0.7492; Complete [1, 4]: 1.361; Difference [1, 5]: 0.61
4 | C[C@@H]1CCN(C(=O)CC#N)C[C@@H]1N(C)c1ncnc2[nH]ccc12 [Tofacitinib] | 1.188 | 1.224 | 0.04 |  |  |  |  |  | Difference [1, 13]: −0.07; Cholesterol-free [1, 3]: 1.303; Complete [1, 4]: 1.238
5 | CCc1ccc(Cc2ccc3c(c2)[C@]2(OC3)O[C@H](CO)[C@@H](O)[C@H](O)[C@H]2O)cc1 [Tofogliflozin (hydrate)] | 0.9605 | 1.04 | 0.08 | 1.411 | 1.03 |  |  |  | Difference [1, 10]: −0.38
6 | Cc1ccc(S(=O)(=O)NC(=O)NN2CCCCCC2)cc1 [Tolazamide] | 1.047 | 1.177 | 0.13 |  |  |  |  |  | Difference [1, 14]: −0.50; Cholesterol-free [1, 15]: 1.412; Complete [1, 16]: 0.9106
7 | c1ccc(CC2=NCCN2)cc1 [Tolazoline (hydrochloride)] |  |  |  | 1.249 | 0.9982 | 1.363 | 1.126 | −0.24 | Difference [1, 13]: −0.25
8 | CCCCNC(=O)NS(=O)(=O)c1ccc(C)cc1 [Tolbutamide] |  |  |  | 1.099 | 0.8474 | 1.123 | 0.9256 | −0.20 | Difference [1, 13]: −0.25
9 | Cc1ccc(C(=O)c2cc(O)c(O)c([N+](=O)[O-])c2)cc1 [Tolcapone] |  |  |  |  |  | 1.114 | 0.8994 | −0.21 | Difference ([1]; Complete minus Cholesterol-free, greater than 0 enhanced anti-cancer activity, below 0 antagonist): −0.19; Cholesterol-free ([1]; NCI-H292 cells, FDA drug library screen, cholesterol-free media without statin): 1.149; Complete ([1]; NCI-H292 cells, FDA drug library screen, complete media): 0.9627
10 | Cc1c(Cl)cccc1Nc1ccccc1C(=O)O [Tolfenamic Acid] | 0.9725 | 0.9986 | 0.03 | 1.332 | 0.9309 |  |  |  | Difference [1, 10]: −0.40
11 | Cc1ccc(C(=O)c2ccc(CC(=O)O)n2C)cc1 [Tolmetin (sodium dihydrate)] |  |  |  |  |  |  |  | −0.35 | Cholesterol-free [1, 3]: 0.7023; Complete [1, 4]: 1.262; Difference [1, 5]: 0.56; Cholesterol-free media + simvastatin (0.04 μM) [2, 17]: 1.295; Complete Media [2, 18]: 0.94
12 | Cc1ccc(C(=O)c2ccc(CC(=O)O)n2C)cc1 [Tolmetin] |  |  |  | 0.9799 | 0.6144 |  |  | −0.33 | Difference [1, 10]: −0.37; Cholesterol-free media + simvastatin (0.04 μM) [2, 17]: 1.718; Complete Media [2, 18]: 1.392
13 | Cc1cccc(N(C)C(=S)Oc2ccc3ccccc3c2)c1 [Tolnaftate] |  |  |  |  |  | 1.419 | 1.24 | −0.18 | Difference [1, 14]: −0.53; Cholesterol-free [1, 15]: 1.723; Complete [1, 16]: 1.191
14 | Cc1cccc(N2CC(CO)OC2=O)c1 (stereo not drawn) [Toloxatone] |  |  |  |  |  |  |  |  | Difference [1, 14]: −0.48; Cholesterol-free [1, 15]: 1.574; Complete [1, 16]: 1.099; Cholesterol-free media + simvastatin (0.04 μM) ([2]; cholesterol-free media with simvastatin 0.04 μM, FDA drug library screen (TABLE 2)): 1.023; Complete Media ([2]; complete media, FDA drug library screen (TABLE 2)): 1.032; Difference ([2]; complete media minus cholesterol-free media + simvastatin (0.04 μM)): 0.01
